Molecules are shown by their SMILES.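 Cultured in 96-well plates, cells were exposed to test compound for 48 hours across five concentrations. Definition used: TGI = concentration required for complete inhibition of growth.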 Where a SMILES comes first, the peptide text is derived from it. Bridges are numbered along the chain shown (N, C = ends). The star is where a group is joined. Cbz = O=C(OCc1ccccc1)*

Drawing on PubChem BioAssay (NCI), this text covers TGI for 14 compounds.

Test systems include COLO 205 colon; T-47D breast; SK-MEL-5 melanoma; K-562 leukemia; MDA-MB-435; MDA-N; EKVX NSCLC; 786-0 renal; SK-MEL-2 melanoma; SR leukemia.
What all share (assay): growth of human tumour cells (NCI), 48 h

For `Cc1cc(O)ccc1C1(c2ccc(F)cc2)OC(=O)c2ccccc21` (centres undefined), the TGI in the assay on COLO 205 colon is 11.2 µM; in the assay on T-47D breast, 0.974 µM; in the assay with SK-MEL-5 melanoma, 24.3 µM; in the assay with K-562 leukemia it was above 72.9 µM; in the assay with MDA-MB-435 it was 26.9 µM; in the assay on MDA-N, 25 µM. The TGI in the assay with EKVX NSCLC was 12.6 µM; in the assay on 786-0 renal, 22.2 µM; in the assay with SK-MEL-2 melanoma, 17.4 µM; in the assay with SR leukemia, above 76.8 µM.

Take `COc1ccc2c(c1OC)C(=O)O[C@@H]2[C@H]1c2cc3c(cc2CCN1C)OCO3`: the TGI with COLO 205 colon, in the assay with T-47D breast, in the assay on SK-MEL-5 melanoma, in the assay on K-562 leukemia, in the assay with MDA-MB-435 and with MDA-N was above 100 µM throughout. For the same compound, the TGI in the assay with EKVX NSCLC, in the assay with 786-0 renal, in the assay with SK-MEL-2 melanoma and with SR leukemia was above 100 µM throughout.

In the case of `CC(=O)O[C@H]1CN(S(=O)(=O)c2ccc(C)cc2)C[C@@H]1C1CCCCC1`, the TGI was above 100 µM with COLO 205 colon; above 100 µM in the assay with T-47D breast; 31.9 µM in the assay on SK-MEL-5 melanoma; above 100 µM in the assay on K-562 leukemia; 70.5 µM in the assay on MDA-MB-435; above 100 µM in the assay with MDA-N. In addition, the TGI in the assay on EKVX NSCLC was 52.8 µM; in the assay with SK-MEL-2 melanoma, 37.7 µM; with SR leukemia, above 100 µM.

Regarding `ONC1=Nc2ccccc2OCc2cc(Br)c(Br)cc2COc2ccccc2N=C1NO`, the TGI in the assay with COLO 205 colon is 21.5 µM; in the assay on T-47D breast it was 31.1 µM; in the assay with SK-MEL-5 melanoma it was 30.4 µM; with K-562 leukemia, above 44.6 µM; in the assay on MDA-MB-435, above 54.3 µM; in the assay on MDA-N, 34.1 µM. Also, the TGI was 47.2 µM in the assay with EKVX NSCLC, above 44.3 µM in the assay with 786-0 renal, 38.7 µM with SK-MEL-2 melanoma and 15.2 µM in the assay on SR leukemia.

Turning to `O=C1c2ccccc2-c2nc(-c3ccccc3)cc3c2c1nc1ccccc13`, the TGI is 65.3 µM with COLO 205 colon; above 100 µM in the assay on T-47D breast; 13.3 µM with SK-MEL-5 melanoma; above 100 µM in the assay with K-562 leukemia; 3.51 µM in the assay with MDA-MB-435; 3.67 µM in the assay on MDA-N. In addition, the TGI was 88.3 µM with EKVX NSCLC, above 100 µM in the assay with 786-0 renal, 51.4 µM with SK-MEL-2 melanoma and 11.9 µM in the assay on SR leukemia.

Regarding `O=C(/C=C(\O)c1ccccc1)/C(=C/C(=O)c1ccccc1)NN=C(c1ccccc1)c1ccccc1`, the TGI in the assay on COLO 205 colon was above 100 µM; in the assay on T-47D breast it was above 100 µM; in the assay with SK-MEL-5 melanoma, 43 µM; in the assay on K-562 leukemia, above 100 µM; with MDA-MB-435, above 100 µM; in the assay with MDA-N, above 100 µM. Besides, the TGI with EKVX NSCLC is above 100 µM; in the assay with 786-0 renal, above 100 µM; with SK-MEL-2 melanoma, 84.2 µM; in the assay on SR leukemia, above 100 µM.

For `CCn1c2ccc(O)c(C(=O)OC)c2c2cc3ccccc3c(O)c21`, the TGI is 29.5 µM with COLO 205 colon; 34.1 µM with T-47D breast; 38.5 µM in the assay with SK-MEL-5 melanoma; above 100 µM in the assay on K-562 leukemia; 48.3 µM in the assay on MDA-MB-435; 72.4 µM in the assay on MDA-N. Moreover, the TGI in the assay with EKVX NSCLC came out at 67.4 µM; in the assay with 786-0 renal, 30.7 µM; with SK-MEL-2 melanoma, 36.6 µM; in the assay with SR leukemia, 57.6 µM.

On to `CCOC(=O)/C(C#N)=C(/NNc1ccccc1)c1ccncc1C(=O)O`, for which the TGI was 22.5 µM with COLO 205 colon; above 100 µM with T-47D breast; above 48.9 µM with SK-MEL-5 melanoma; above 100 µM in the assay on K-562 leukemia; above 100 µM in the assay with MDA-MB-435; above 100 µM in the assay on MDA-N. In addition, the TGI in the assay on EKVX NSCLC, in the assay with 786-0 renal, in the assay with SK-MEL-2 melanoma and in the assay on SR leukemia was above 100 µM each time.

For the compound `COC(=O)C1CCCCNC(=O)CCC(NC(=O)OCc2ccccc2)C(=O)N1` (stereo not drawn) (Cbz-Glu-Lys-OMe; lactam 1-2; configuration not given here), the TGI with COLO 205 colon, with T-47D breast, with SK-MEL-5 melanoma, in the assay on K-562 leukemia, with MDA-MB-435 and with MDA-N was above 100 µM in each case. Besides, the TGI in the assay with EKVX NSCLC, in the assay on 786-0 renal, with SK-MEL-2 melanoma and in the assay on SR leukemia was above 100 µM each time.

Consider `C=CC(C)(C)c1cc([C@@H]2COc3cc(O)ccc3C2=O)c(O)c(O)c1OC`, for which the TGI was 63 µM in the assay with COLO 205 colon; 62.3 µM in the assay with T-47D breast; 41.1 µM in the assay on SK-MEL-5 melanoma; above 100 µM with K-562 leukemia; 39.2 µM in the assay on MDA-MB-435; 51 µM in the assay with MDA-N. The TGI in the assay on EKVX NSCLC was 99.4 µM; with 786-0 renal it was 31.6 µM; in the assay with SK-MEL-2 melanoma it was 45.8 µM; with SR leukemia it was above 100 µM.

Consider `COC1=CC(=O)c2c(O)c3c(c(O)c2C1=O)C[C@](C)(O)C[C@@H]3O`, for which the TGI with COLO 205 colon was found to be 4.96 µM; in the assay with T-47D breast it was 22.3 µM; in the assay with SK-MEL-5 melanoma, 2.64 µM; with K-562 leukemia it was 19.4 µM; with MDA-MB-435, 3.34 µM; with MDA-N it was 3.35 µM. Also, the TGI in the assay with EKVX NSCLC came to 23.6 µM; in the assay with 786-0 renal, 46.7 µM; with SK-MEL-2 melanoma it was 14.3 µM; with SR leukemia, 12.1 µM.

Turning to `COc1cc([C@H]2Oc3c(OC)cc(CCCO)cc3[C@@H]2CO)ccc1O`, the TGI in the assay on COLO 205 colon, in the assay on T-47D breast, with SK-MEL-5 melanoma, in the assay on K-562 leukemia, in the assay with MDA-MB-435 and in the assay with MDA-N was above 100 µM in each case. In addition, the TGI with EKVX NSCLC, in the assay with 786-0 renal, in the assay on SK-MEL-2 melanoma and in the assay with SR leukemia was above 100 µM in each case.

As for `O=C(O)c1cc(Cl)cc2c1NC1(N2)C(=O)Nc2ccccc21` (centres undefined), the TGI in the assay on COLO 205 colon, in the assay with T-47D breast, in the assay on SK-MEL-5 melanoma, with K-562 leukemia, with MDA-MB-435 and with MDA-N was above 100 µM each time. Further, the TGI in the assay on EKVX NSCLC, in the assay with 786-0 renal, with SK-MEL-2 melanoma and in the assay on SR leukemia was above 100 µM throughout.

Take `CSc1nc(C#N)c(N)n1C`: the TGI in the assay on COLO 205 colon, in the assay on T-47D breast, with SK-MEL-5 melanoma, in the assay on K-562 leukemia, in the assay with MDA-MB-435 and in the assay on MDA-N was above 100 µM throughout. For the same compound, the TGI with EKVX NSCLC, in the assay with 786-0 renal, in the assay with SK-MEL-2 melanoma and in the assay on SR leukemia was above 100 µM each time.
